Laboratory results reported in patent publication US5439928A, “Aromatase inhibiting 4(5)-imidazoles” (Orion-yhtyma Oy, priority 1993, dated 1995).

What follows are compounds tested against desmolase (CSCC) (assay: Cholesterol side chain cleavage (CSCC, desmolase) inhibition, mitochondrial fraction from human placenta or bovine adrenals). Conditions: substrate 5 μM, 30 min, 37° C., read-out: IC-50 CSCC (desmolase).
Type: biochemical

In order of falling IC50:
1. c1ccc(C(CCCc2c[nH]cn2)c2ccccc2)cc1 [Compound 9a, 4-(4,4-diphenylbutyl)-1H-imidazole]  320 µM
2. Nc1ccc(C(CCCc2c[nH]cn2)c2ccc(N)cc2)cc1 [Compound 25a, 4-[4,4-bis(4-aminophenyl)butyl]-1H-imidazole]  210 µM
3. COc1ccc(C(CCCc2c[nH]cn2)c2ccccc2)cc1 (centres unmarked) [Compound 11a, 4-[4-(4-methoxyphenyl)-4-phenylbutyl]-1H-imidazole]  190 µM
4. Fc1ccc(C(CCCc2c[nH]cn2)c2ccc(F)cc2)cc1 [Compound 23a, 4-[4,4-bis(4-fluorophenyl)butyl]-1H-imidazole]  175 µM
5. Cc1ccc(CCCCC(c2ccc(F)cc2)c2c[nH]cn2)cc1 (centres unmarked) [Compound 4c, 4-[1-(4-fluorophenyl)-5-(4-methylphenyl)pentyl]-1H-imidazole]  170 µM
6. C(=Cc1c[nH]cn1)CC(c1ccccc1)c1ccccc1 [Compound 22a, 4-(4,4-diphenyl-1-butenyl)-1H-imidazole]  165 µM
7. Cc1ccc(C(CCCc2c[nH]cn2)c2ccc(C)cc2)cc1 [Compound 17a, 4-[4,4-bis(4-methylphenyl)butyl]-1H-imidazole]  110 µM
8. Cc1ccc(C(CCCc2c[nH]cn2)c2ccccc2)cc1 (centres unmarked) [Compound 1a, 4-[4-(4-methylphenyl)-4-phenylbutyl]-1H-imidazole]  96 µM
9. Cc1cccc(C(CCCc2c[nH]cn2)c2cc(C)cc(C)c2)c1 (centres unmarked) [Compound 16a, 4-[4-(3,5-dimethylphenyl)-4-(3-methylphenyl)butyl]-1H-imidazole]  95 µM
10. Cc1cc(C)cc(CCCCC(c2ccc(F)cc2)c2c[nH]cn2)c1 (centres unmarked) [Compound 5c, 4-[5-(3,5-dimethylphenyl)-1-(4-fluorophenyl)-pentyl]-1H-imidazole]  80 µM
11. Fc1ccc(C(CCCc2c[nH]cn2)c2ccccc2)cc1 (centres unmarked) [Compound 21a, 4-[4-(4-fluorophenyl)-4-phenylbutyl]-1H-imidazole]  80 µM
12. c1ccc(C(CCCCc2c[nH]cn2)c2ccccc2)cc1 [Compound 18a, 4-(5,5-diphenylpentyl)-1H-imidazole]  68 µM
13. Cc1cc(C)cc(C(CCCc2c[nH]cn2)c2ccccc2)c1 (centres unmarked) [Compound 14a, 4-[4-(3,5-dimethylphenyl)-4-phenylbutyl]-1H-imidazole]  65 µM
14. CCc1ccc(C(CCCc2c[nH]cn2)c2ccccc2)cc1 (centres unmarked) [Compound 26a, 4-[4-(4-ethylphenyl)-4-phenylbutyl]-1H-imidazole]  65 µM
15. c1ccc(C(CCCCCc2c[nH]cn2)c2ccccc2)cc1 [Compound 19a, 4-(6,6-diphenylhexyl)-1H-imidazole]  61 µM
16. Cc1cccc(CCCCC(c2ccc(F)cc2)c2c[nH]cn2)c1 (centres unmarked) [Compound 3c, 4-[1-(4-fluorophenyl)-5-(3-methylphenyl)pentyl]-1H-imidazole]  57 µM
17. Cc1ccc(C(CCCc2cncn2Cc2ccccc2)c2ccccc2)cc1 (centres unmarked) [Compound 2a, 1-benzyl-5-[4-(4-methylphenyl)-4-phenylbutyl]-1H-imidazole]  50 µM
18. Cc1cccc(C(CCCc2c[nH]cn2)c2cccc(C)c2)c1 [Compound 13a, 4-[4,4-bis(3-methylphenyl)butyl]-1H-imidazole]  48 µM
19. COc1ccc(C(CCCc2c[nH]cn2)c2ccc(OC)cc2)cc1 [Compound 12a, 4-[4,4-bis(4-methoxyphenyl)butyl]-1H-imidazole]  46 µM
20. Cc1ccc(C(CCCc2c[nH]cn2)c2ccccc2)cc1C (centres unmarked) [Compound 15a, 4-[4-(3,4-dimethylphenyl)-4-phenylbutyl]-1H-imidazole]  39 µM
21. Cc1cccc(C(CCCc2cncn2Cc2ccccc2)c2ccccc2)c1 (centres unmarked) [Compound 3a, 1-benzyl-5-[4-(3-methylphenyl)-4-phenylbutyl]-1H-imidazole]  38 µM
22. Fc1ccccc1C(CCCc1c[nH]cn1)c1ccccc1 (centres unmarked) [Compound 20a, 4-[4-(2-fluorophenyl)-4-phenylbutyl]-1H-imidazole]  38 µM
23. O=[N+]([O-])c1ccc(C(CCCc2c[nH]cn2)c2ccc([N+](=O)[O-])cc2)cc1 [Compound 24a, 4-[4,4-bis(4-nitrophenyl)butyl]-1H-imidazole]  37 µM
24. Cc1ccccc1C(CCCc1cncn1Cc1ccccc1)c1ccccc1 (centres unmarked) [Compound 6a, 1-benzyl-5-[4-(2-methylphenyl)-4-phenylbutyl]-1H-imidazole]  32 µM
25. Cc1cccc(C)c1CCCCC(c1ccc(F)cc1)c1c[nH]cn1 (centres unmarked) [Compound 13c, 4-[1-(4-fluorophenyl)-5-(2,6-dimethylphenyl)-pentyl]-1H-imidazole]  31 µM
26. Fc1ccc(C(CCCc2ccccc2)c2c[nH]cn2)cc1 (centres unmarked) [Compound 10c, 4-[1-(4-fluorophenyl)-4-phenylbutyl]-1H-imidazole]  31 µM
27. Cc1ccccc1C(CCCc1c[nH]cn1)c1ccccc1 (centres unmarked) [Compound 5a, 4-[4-(2-methylphenyl)-4-phenylbutyl]-1H-imidazole]  29 µM
28. Fc1ccc(CCCC(c2ccc(F)cc2)c2c[nH]cn2)cc1 (centres unmarked) [Compound 15c, 4-[1,4-bis(4-fluorophenyl)butyl]-1H-imidazole]  29 µM
29. Fc1ccc(C(CCc2ccccc2)Cc2c[nH]cn2)cc1 (centres unmarked) [Compound 17c, 4-[2-(4-fluorophenyl)-4-phenylbutyl]-1H-imidazole]  28 µM
30. c1ccc(CC(CCCc2c[nH]cn2)c2ccccc2)cc1 (centres unmarked) [Compound 8a, 4-(4,5-diphenylpentyl)-1H-imidazole]  27 µM
31. COc1ccc(CCCCC(c2ccc(F)cc2)c2c[nH]cn2)cc1 (centres unmarked) [Compound 12c, 4-[1-(4-fluorophenyl)-5-(4-methoxyphenyl)pentyl]-1H-imidazole]  22.5 µM
32. Fc1ccc(CCC(c2ccc(F)cc2)c2c[nH]cn2)cc1 (centres unmarked) [Compound 14c, 4-[1,3-bis(4-fluorophenyl)propyl]-1H-imidazole]  22 µM
33. Fc1ccc(C(CCc2ccccc2)c2c[nH]cn2)cc1 (centres unmarked) [Compound 9c, 4-[1-(4-fluorophenyl)-3-phenylpropyl]-1H-imidazole]  22 µM
34. Fc1ccc(CCC(Cc2c[nH]cn2)c2ccc(F)cc2)cc1 (centres unmarked) [Compound 18c, 4-[2,4-bis(4-fluorophenyl)butyl]-1H-imidazole]  20 µM
35. Fc1ccc(C(CCCCc2ccccc2)c2c[nH]cn2)cc1 (centres unmarked) [Compound 1c, 4-[1-(4-fluorophenyl)-5-phenylpentyl]-1H-imidazole]  19 µM
36. Cc1ccccc1CCCCC(c1ccc(F)cc1)c1c[nH]cn1 (centres unmarked) [Compound 2c, 4-[1-(4-fluorophenyl)-5-(2-methylphenyl)pentyl]-1H-imidazole]  16 µM
37. COc1cccc(CCCCC(c2ccc(F)cc2)c2c[nH]cn2)c1 (centres unmarked) [Compound 11c, 4-[1-(4-fluorophenyl)-5-(3-methoxyphenyl)pentyl]-1H-imidazole]  12 µM
38. c1ccc(CCC(Cc2c[nH]cn2)c2ccccc2)cc1 (centres unmarked) [Compound 16c, 4-(2,4-diphenylbutyl)-1H-imidazole]  12 µM
39. Cc1cccc(C(CCCc2c[nH]cn2)c2ccccc2)c1 (centres unmarked) [Compound 4a, 4-(4-(3-methylphenyl)-4-phenylbutyl]-1H-imidazole]  7.5 µM
40. c1ccc(CCC(c2ccccc2)c2c[nH]cn2)cc1 (centres unmarked) [Compound 7c, 4-(1,3-diphenylpropyl)-1H-imidazole]  7.5 µM
41. N#Cc1ccc(C(CCc2ccc(F)cc2)Cc2c[nH]cn2)cc1 (centres unmarked) [Compound 19c, 4-[2-(4-cyanophenyl)-4-(4-fluorophenyl)butyl]-1H-imidazole]  6.6 µM

The compounds below were run on DMBA-induced rat mammary adenocarcinomas (assay: Anti-tumour effect in vivo against DMBA-induced rat mammary adenocarcinomas). Conditions: 3 mg/kg, daily for five weeks, female rats; control 3.
Description: The anti-tumour effect was investigated in vivo against DMBA-induced rat mammary adenocarcinomas by the following method. Mammary adenocarcinoma was induced with DMBA in 50±2 days old female rats. Treatment with the compound under test was started after palpable tumours had appeared. Tumour size and amount of tumours were evaluated once a week. Tumour sizes in the control group, treated with solvent, were compared with the test groups. Daily administration schedule was employed for five weeks and animals were sacrificed. The change in tumour sizes was evaluated. Results were evaluated as changes in the sizes of tumours and divided into three groups, namely increasing, stable and decreasing sizes of tumours.

With c1ccc(C(CCCc2c[nH]cn2)c2ccccc2)cc1 [Compound 9a, 4-(4,4-diphenylbutyl)-1H-imidazole] the “Number of tumours decreasing” value was 2.

Same assay, conditions: 3 mg/kg, daily for five weeks, female rats; control 21

c1ccc(C(CCCc2c[nH]cn2)c2ccccc2)cc1 [Compound 9a, 4-(4,4-diphenylbutyl)-1H-imidazole] was tested, and the “Number of tumours stable” value was 14.

Same assay, conditions: 3 mg/kg, daily for five weeks, female rats; control 42

With c1ccc(C(CCCc2c[nH]cn2)c2ccccc2)cc1 [Compound 9a, 4-(4,4-diphenylbutyl)-1H-imidazole] the “Number of tumours increasing” value was 37.

Same assay, conditions: 30 mg/kg, daily for five weeks, female rats; control 3

In the case of c1ccc(C(CCCc2c[nH]cn2)c2ccccc2)cc1 [Compound 9a, 4-(4,4-diphenylbutyl)-1H-imidazole], the “Number of tumours decreasing” value is reported as 21.

Same assay, conditions: 30 mg/kg, daily for five weeks, female rats; control 21

In the case of c1ccc(C(CCCc2c[nH]cn2)c2ccccc2)cc1 [Compound 9a, 4-(4,4-diphenylbutyl)-1H-imidazole], the “Number of tumours stable” value is reported as 3.

Same assay, conditions: 30 mg/kg, daily for five weeks, female rats; control 42

For c1ccc(C(CCCc2c[nH]cn2)c2ccccc2)cc1 [Compound 9a, 4-(4,4-diphenylbutyl)-1H-imidazole], the “Number of tumours increasing” value was 15.
